Experimental data published in US20150133512A1, “N-ARYLTRIAZOLE COMPOUNDS AS LPAR ANTAGONISTS” (Hoffmann-La Roche Inc,, priority 2012, published 2015).

Experiments:
[1] = molecular target: T1, LPA3 (Homo sapiens, UniProt Q9UBY5); assay: Calcium flux assay using FLIPR, LPA3 antagonist activity; format: cell-based; details: for IC50: antagonist activity
T1 sequence (Q9UBY5 1-353): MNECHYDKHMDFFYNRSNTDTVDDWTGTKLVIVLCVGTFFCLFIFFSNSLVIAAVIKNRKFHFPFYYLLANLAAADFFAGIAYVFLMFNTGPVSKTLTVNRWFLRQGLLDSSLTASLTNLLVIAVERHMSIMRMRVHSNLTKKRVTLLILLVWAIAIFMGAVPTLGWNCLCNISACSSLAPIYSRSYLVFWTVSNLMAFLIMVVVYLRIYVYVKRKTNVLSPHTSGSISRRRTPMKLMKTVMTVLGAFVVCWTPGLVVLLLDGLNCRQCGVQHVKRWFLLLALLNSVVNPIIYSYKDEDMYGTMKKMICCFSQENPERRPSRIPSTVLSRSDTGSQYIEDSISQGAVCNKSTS
Procedure: (§1) Calcium Flux Assay Using Fluorometric Imaging Plate Reader (FLIPR)
(§2) Dye Loading and Assay: Loading Buffer (FLIPR Calcium-4, Molecular Devices) was prepared by dissolving the contents of one bottle into 100 mL Hank's Balanced Salt Solution containing 20 mM HEPES and 2.5 mM probenecid. Plates were loaded onto Biotek plate washer and growth media was removed and replaced with 20 μL of Hank's Balanced Salt Solution containing 20 mM HEPES and 2.5 mM probenecid, followed by 25 μL of Loading Buffer. The plates were then incubated for 30 minutes at 37° C.
During the incubation, test compounds were prepared by adding 90 μL of HBSS/20 mM HEPES/0.1% BSA buffer to 2 μL of serially diluted compounds. To prepare serial dilutions, 10 mM stocks of compounds were prepared in 100% DMSO. The compound dilution plate was set up as follows: well #1 received 29 μL of stock compound and 31 μL DMSO; wells 2-10 received 40 μL of DMSO; mixed and transferred 20 μL of solution from well #1 into well #2; continued with 1:3 serial dilutions out 10 steps; transferred 2 μL of diluted compound into duplicate wells of 384 well “assay plate” and then added the 90 μL of buffer.
After incubation, both the cell and “assay” plates were brought to the FLIPR and 20 μL of the diluted compounds were transferred to the cell plates by the FLIPR. Compound addition was monitored by FLIPR to detect any agonist activity of the compounds. Plates were then incubated for 30 minutes at room temperature protected from light. After the incubation, plates were returned to the FLIPR and 20 μL of 4.5× concentrated agonist was added to the cell plates. During the assay, fluorescence readings were taken simultaneously from all 384 wells of the cell plate every 1.5 seconds. Five readings were taken to establish a stable baseline, then 20 μL of sample was rapidly (30 μL/sec) and simultaneously added to each well of the cell plate. The fluorescence was continuously monitored before, during and after sample addition for a total elapsed time of 100 seconds. Responses (increase in peak fluorescence) in each well following agonist addition was determined. The initial fluorescence reading from each well, prior to ligand stimulation, was used as zero baseline value for the data from that well. The responses were expressed as % inhibition of the buffer control.

[2] = molecular target: human recombinant LPA1 Lysophospholipid receptor (Homo sapiens, UniProt Q92633); assay: Calcium flux assay using FLIPR, LPA1 antagonist activity; format: cell-based; details: for IC50: ChemiScreen Calcium-optimized stable cell line, antagonist mode, inhibition of agonist-induced calcium flux
Procedure: as §1
Cell Culture Conditions: The ChemiScreen Calcium-optimized stable cell line containing the human recombinant LPA1 Lysophospholipid receptor was purchased from Chemicon International, Inc./Millipore. The cells were cultured in DMEM-high glucose supplemented with 10% fetal bovine serum, 2 mM glutamine, 100 U/mL penicillin/100 μg/mL streptomycin, 1× non-essential amino acids, 10 mM HEPES and 0.25 mg/mL Geneticin. Cells were harvested with trypsin-EDTA and counted using ViaCount reagent. The cell suspension volume was adjusted to 2.0×10^5 cells/mL with complete growth media. Aliquots of 50 μL were dispensed into 384 well black/clear tissue culture treated plates (BD) and the microplates were placed in a 37° C. incubator overnight. The following day plates were used in the assay.
as §2
During the incubation, test compounds were prepared by adding 90 μL of HBSS/20 mM HEPES/0.1% BSA buffer to 2 μL of serially diluted compounds. To prepare serial dilutions, 10 mM stocks of compounds were prepared in 100% DMSO.
After incubation, both the cell and “assay” plates were brought to the FLIPR and 20 μL of the diluted compounds were transferred to the cell plates by the FLIPR. Compound addition was monitored by FLIPR to detect any agonist activity of the compounds. Plates were then incubated for 30 minutes at room temperature protected from light. […] During the assay, fluorescence readings were taken simultaneously from all 384 wells of the cell plate every 1.5 seconds. Five readings were taken to establish a stable baseline, then 20 μL of sample was rapidly (30 μL/sec) and simultaneously added to each well of the cell plate. The fluorescence was continuously monitored before, during and after sample addition for a total elapsed time of 100 seconds. Responses (increase in peak fluorescence) in each well following agonist addition was determined. The initial fluorescence reading from each well, prior to ligand stimulation, was used as zero baseline value for the data from that well. The responses were expressed as % inhibition of the buffer control.

human recombinant LPA1 Lysophospholipid receptor, sequence (Q92633 whole entry): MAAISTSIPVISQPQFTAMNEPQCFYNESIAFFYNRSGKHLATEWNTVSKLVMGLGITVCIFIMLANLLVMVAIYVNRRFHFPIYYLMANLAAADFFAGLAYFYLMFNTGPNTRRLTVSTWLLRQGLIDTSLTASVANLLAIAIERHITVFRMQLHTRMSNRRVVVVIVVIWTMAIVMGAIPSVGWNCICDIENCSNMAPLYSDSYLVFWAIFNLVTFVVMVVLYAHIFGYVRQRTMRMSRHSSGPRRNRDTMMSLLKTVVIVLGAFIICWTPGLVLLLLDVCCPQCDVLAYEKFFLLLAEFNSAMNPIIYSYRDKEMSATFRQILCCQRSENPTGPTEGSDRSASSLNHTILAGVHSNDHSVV

SMILES | IC50 [1] | IC50 [2] | inhibition at 30 µM [2] | inhibition at 30 µM [1]
Cc1nnn(-c2ccc(-c3ccc(C4(C(=O)O)CC4)cc3)cc2)c1NC(=O)O[C@H](C)c1ccccc1 [Example 1, 1-{4′-[4-Methyl-5-((R)-1-phenyl-ethoxycarbonylamino)-[1,2,3]triazol-1-yl]-biphenyl-4-yl}-cyclopropanecarboxylic acid] | > 30 µM | 0.025 µM |  | 
Cc1nnn(-c2ccc(-c3ccc(CC(=O)O)cc3)cc2)c1NC(=O)O[C@H](C)c1ccccc1 [Example 2, {4′-[4-Methyl-5-((R)-1-phenyl-ethoxycarbonylamino)-[1,2,3]triazol-1-yl]-biphenyl-4-yl}-acetic acid] | > 30 µM | > 30 µM | 40% | 
Cc1c(NC(=O)O[C@H](C)c2ccccc2)nnn1-c1ccc(-c2ccc(C3(C(=O)O)CC3)cc2)cc1 [Example 3, 1-{4′-[5-Methyl-4-((R)-1-phenyl-ethoxycarbonylamino)-[1,2,3]triazol-1-yl]-biphenyl-4-yl}-cyclopropanecarboxylic acid] | > 30 µM | > 30 µM |  | 
Cc1c(NC(=O)O[C@H](C)c2ccccc2)nnn1-c1ccc(-c2ccc(CC(=O)O)cc2)cc1 [Example 4, {4′-[5-Methyl-4-((R)-1-phenyl-ethoxycarbonylamino)-[1,2,3]triazol-1-yl]-biphenyl-4-yl}-acetic acid] | > 30 µM | > 30 µM |  | 
Cc1nnn(-c2ccc(-c3ccc(C4(C(=O)O)CC4)cc3)cc2)c1NC(=O)O[C@H](C)c1ccccc1F [Example 5, 1-(4′-{5-[(R)-1-(2-Fluoro-phenyl)-ethoxycarbonylamino]-4-methyl-[1,2,3]triazol-1-yl}-biphenyl-4-yl)-cyclopropanecarboxylic acid] | > 30 µM |  |  | 
Cc1nnn(-c2ccc(-c3ccc(C4(C(=O)O)CC4)cc3)cc2)c1NC(=O)O[C@H](C)c1ccccc1C(F)(F)F [Example 6, 1-(4′-{4-Methyl-5-[(R)-1-(2-trifluoromethyl-phenyl)-ethoxycarbonylamino]-[1,2,3]triazol-1-yl}-biphenyl-4-yl)-cyclopropanecarboxylic acid] | 25.9 µM | 0.112 µM |  | 55.2%
Cc1nnn(-c2ccc(-c3ccc(C4(C(=O)O)CC4)cc3)cc2)c1NC(=O)O[C@H](C)c1cccc(C(F)(F)F)c1 [Example 7, 1-(4′-{4-Methyl-5-[(R)-1-(3-trifluoromethyl-phenyl)-ethoxycarbonylamino]-[1,2,3]triazol-1-yl}-biphenyl-4-yl)-cyclopropanecarboxylic acid] | 6.86 µM | 0.174 µM |  | 
Cc1nnn(-c2ccc(-c3ccc(C4(C(=O)O)CC4)cc3)cc2)c1NC(=O)O[C@@H]1CCc2ccccc21 [Example 8, 1-{4′-[5-((R)-Indan-1-yloxycarbonylamino)-4-methyl-[1,2,3]triazol-1-yl]-biphenyl-4-yl}-cyclopropanecarboxylic acid] | > 30 µM | > 30 µM |  | 
Cc1nnn(-c2ccc(-c3ccc(C4(C(=O)O)CC4)cc3)cc2)c1NC(=O)O[C@H](C)C(C)C [Example 9, 1-{4′-[5-((R)-1,2-Dimethyl-propoxycarbonylamino)-4-methyl-[1,2,3]triazol-1-yl]-biphenyl-4-yl}-cyclopropanecarboxylic acid] | > 30 µM | 0.217 µM |  | 
CC[C@@H](C)OC(=O)Nc1c(C)nnn1-c1ccc(-c2ccc(C3(C(=O)O)CC3)cc2)cc1 [Example 10, 1-{4′-[5-((R)-sec-Butoxycarbonylamino)-4-methyl-[1,2,3]triazol-1-yl]-biphenyl-4-yl}-cyclopropanecarboxylic acid] | > 30 µM | 0.398 µM |  | 
Cc1nnn(-c2ccc(-c3ccc(C4(C(=O)O)CC4)cc3)cc2)c1NC(=O)OC(C)C [Example 11, 1-[4′-(5-iso-Propoxycarbonylamino-4-methyl-[1,2,3]triazol-1-yl)-biphenyl-4-yl]-cyclopropanecarboxylic acid] | > 30 µM | > 30 µM |  | 
Cc1nnn(-c2ccc(-c3ccc(C4(C(=O)O)CC4)cc3)cc2)c1NC(=O)OC(C)C1CC1 (stereo not drawn) [Example 12, 1-{4′-[5-(1-Cyclopropyl-ethoxycarbonylamino)-4-methyl-[1,2,3]triazol-1-yl]-biphenyl-4-yl}-cyclopropanecarboxylic acid] | > 30 µM | 0.134 µM |  | 
Cc1nnn(-c2ccc(-c3ccc(C4(C(=O)O)CC4)cc3)cc2)c1NC(=O)OC(C)(C)C [Example 14, 1-[4′-(5-tert-Butoxycarbonylamino-4-methyl-[1,2,3]triazol-1-yl)-biphenyl-4-yl]-cyclopropanecarboxylic acid] | > 30 µM | 0.985 µM |  | 

Continued, values first:

IC50 [1] | IC50 [2] | inhibition at 30 µM [2] | inhibition at 30 µM [1] | SMILES
> 30 µM | 0.174 µM |  |  | Cc1nnn(-c2ccc(-c3ccc(C4(C(=O)O)CCC4)cc3)cc2)c1NC(=O)O[C@H](C)c1ccccc1 (single isomer, unassigned) [Example 32]
> 30 µM | 0.161 µM |  |  | Cc1nnn(-c2ccc(-c3ccc(C4(C(=O)O)CC4)cc3)cc2)c1NC(=O)OC(C)C1CCC1 (stereo not drawn) [Example 13, 1-{4′-[5-(1-Cyclobutyl-ethoxycarbonylamino)-4-methyl-[1,2,3]triazol-1-yl]-biphenyl-4-yl}-cyclopropanecarboxylic acid]
 | 0.022 µM |  | 46.3% | Cc1nnn(-c2ccc(-c3ccc(C4(C(=O)O)CC4)c(F)c3)cc2)c1NC(=O)O[C@H](C)c1ccccc1 [Example 15, 1-{3-Fluoro-4′-[4-methyl-5-((R)-1-phenyl-ethoxycarbonylamino)-[1,2,3]triazol-1-yl]-biphenyl-4-yl}-cyclopropanecarboxylic acid]
> 30 µM | 0.245 µM |  |  | COc1cc(-c2ccc(C3(C(=O)O)CC3)cc2)ccc1-n1nnc(C)c1NC(=O)O[C@H](C)c1ccccc1 [Example 16, 1-{3′-Methoxy-4′-[4-methyl-5-((R)-1-phenyl-ethoxycarbonylamino)-[1,2,3]triazol-1-yl]-biphenyl-4-yl}-cyclopropanecarboxylic acid]
21.7 µM | 0.043 µM |  | 63.7% | CCc1nnn(-c2ccc(-c3ccc(C4(C(=O)O)CC4)cc3)cc2)c1NC(=O)O[C@H](C)c1ccccc1 [Example 17, 1-{4′-[4-Ethyl-5-((R)-1-phenyl-ethoxycarbonylamino)-[1,2,3]triazol-1-yl]-biphenyl-4-yl}-cyclopropanecarboxylic acid]
> 30 µM | 1.23 µM | 79.8% |  | CCc1nnn(-c2ccc(-c3ccc(CC(=O)O)cc3)cc2)c1NC(=O)O[C@H](C)c1ccccc1 [Example 18, {4′-[4-Ethyl-5-((R)-1-phenyl-ethoxycarbonylamino)-[1,2,3]triazol-1-yl]-biphenyl-4-yl}-acetic acid]
> 30 µM |  |  |  | Cc1nnn(-c2ccc(-c3ccc(C4(c5nnn[nH]5)CC4)cc3)cc2)c1NC(=O)O[C@H](C)c1ccccc1 [Example 29, (R)-1-Phenyl-ethyl-1-(4′-(1-(1H-tetrazol-5-yl)cyclopropyl)biphenyl-4-yl)-4-methyl-1H-1,2,3-triazol-5-ylcarbamate]
